Experimental data: the Kinase Knowledgebase extract (Sharma et al. 2016)
Values joined by “and” are separate entries in the source; they are usually repeats but may differ in a detail not shown here. Equal entries are not always repeated.

Biological target: MAPK14 (UniProt Q16539)
Test: p38 alpha Kinase Inhibition Assay
Conditions: not given

MAPK14, sequence (Q16539 whole entry, looked up): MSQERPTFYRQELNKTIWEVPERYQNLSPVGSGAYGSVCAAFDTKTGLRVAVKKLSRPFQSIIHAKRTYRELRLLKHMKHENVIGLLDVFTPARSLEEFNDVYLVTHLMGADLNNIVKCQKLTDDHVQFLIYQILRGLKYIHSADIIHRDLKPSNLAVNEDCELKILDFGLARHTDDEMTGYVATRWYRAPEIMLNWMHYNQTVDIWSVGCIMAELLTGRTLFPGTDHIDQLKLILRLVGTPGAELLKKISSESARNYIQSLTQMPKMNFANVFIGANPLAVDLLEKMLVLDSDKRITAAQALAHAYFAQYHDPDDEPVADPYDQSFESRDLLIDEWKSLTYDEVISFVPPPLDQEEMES

| IC50 | Compound |
| --- | --- |
| 2150 nM | O=C(c1ccc2nc[nH]c2c1)N1C2CCC1CC(Cc1ccccc1)C2 (configuration not stated) |
| 150 to 242 nM and 523 to 577 nM | O=C(c1ccc2[nH]ccc2c1)N1CCC(Cc2ccccc2)CC1 |

The next lines start with the compound.

| Compound | IC50 |
| --- | --- |
| O=C(c1ccc2cc[nH]c2c1)N1CCN(Cc2ccccc2)CC1 | 4970 to 5520 nM |
| CCNCCCn1ccc2cc(C(=O)N3CCC(Cc4ccc(F)cc4)CC3)ccc21 | 354 nM |
| O=C(c1ccc2ccn(C(=O)c3ccncc3)c2c1)N1CCC(Cc2ccccc2)CC1 | 505 nM |
| O=C(c1ccc2c(ccn2-c2ccncc2)c1)N1CCC(Cc2ccccc2)CC1 | 800 nM |
| O=C(c1ccc2c(ccn2C(=O)c2ccncc2)c1)N1CCC(Cc2ccccc2)CC1 | 405 to 871 nM |
| CCNCCCn1ccc2cc(C(=O)N3CCC(Cc4ccccc4)CC3)c(Cl)cc21 | 199 nM |

Same assay, conditions: concentration not given here

| inhibition [%] | Compound |
| --- | --- |
| 63 | COc1cc2[nH]ccc2cc1C(=O)N1C2CCC1CC(Cc1ccccc1)C2 (configuration not stated) |
| 51 | O=C(c1ccc2cc[nH]c2c1)N1CCC(Cc2ccc(F)cc2)C1 (configuration not stated) |

Biological target: EGFR (UniProt P00533)
Sequence (P00533 whole entry, looked up): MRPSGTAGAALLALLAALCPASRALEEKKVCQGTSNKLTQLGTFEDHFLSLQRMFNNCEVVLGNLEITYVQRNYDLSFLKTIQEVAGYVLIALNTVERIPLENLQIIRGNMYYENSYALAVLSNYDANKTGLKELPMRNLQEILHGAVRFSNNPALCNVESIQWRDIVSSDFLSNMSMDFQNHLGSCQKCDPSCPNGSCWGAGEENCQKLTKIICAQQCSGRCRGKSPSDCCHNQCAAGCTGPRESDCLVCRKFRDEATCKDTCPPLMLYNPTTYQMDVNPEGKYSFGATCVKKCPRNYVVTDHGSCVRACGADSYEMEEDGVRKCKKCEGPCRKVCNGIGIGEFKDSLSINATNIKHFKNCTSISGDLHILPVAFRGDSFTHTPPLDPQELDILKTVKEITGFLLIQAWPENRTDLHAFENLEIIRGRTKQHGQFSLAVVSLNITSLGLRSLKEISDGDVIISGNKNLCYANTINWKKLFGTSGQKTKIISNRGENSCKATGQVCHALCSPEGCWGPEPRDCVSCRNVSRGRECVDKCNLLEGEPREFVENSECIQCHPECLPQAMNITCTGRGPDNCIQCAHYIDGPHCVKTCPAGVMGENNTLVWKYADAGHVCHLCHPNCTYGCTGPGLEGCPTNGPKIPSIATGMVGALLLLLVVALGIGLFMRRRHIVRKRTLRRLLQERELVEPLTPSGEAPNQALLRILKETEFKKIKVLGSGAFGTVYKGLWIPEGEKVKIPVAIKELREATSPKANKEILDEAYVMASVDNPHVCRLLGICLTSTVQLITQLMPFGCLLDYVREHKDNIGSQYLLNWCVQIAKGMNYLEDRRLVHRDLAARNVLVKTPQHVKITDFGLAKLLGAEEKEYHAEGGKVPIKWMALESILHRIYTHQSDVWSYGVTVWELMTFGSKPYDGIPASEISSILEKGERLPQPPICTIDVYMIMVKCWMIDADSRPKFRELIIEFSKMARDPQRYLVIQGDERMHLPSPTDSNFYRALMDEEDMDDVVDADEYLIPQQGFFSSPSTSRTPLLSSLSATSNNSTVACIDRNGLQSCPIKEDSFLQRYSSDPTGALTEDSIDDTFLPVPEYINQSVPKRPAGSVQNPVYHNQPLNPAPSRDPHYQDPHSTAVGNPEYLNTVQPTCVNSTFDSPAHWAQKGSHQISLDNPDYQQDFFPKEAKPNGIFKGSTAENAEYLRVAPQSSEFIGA
Test: not given
Conditions: not given

| IC50 [nM] | Compound |
| --- | --- |
| > 500000 | O=C(c1ccc2[nH]ccc2c1)N1CCC(Cc2ccccc2)CC1 |
| > 500000 | O=C(c1ccc2cc[nH]c2c1)N1CCC(Cc2ccccc2)CC1 |
